Where no end group is shown, it is not given here.

For the test, the system named is drug-resistant Mycobacterium tuberculosis. The conditions noted are these: peptide 10 micrograms per ml, seven days.

On to “VPIQKVQDDTKTLIKTIVTRINDISHTQSVSSKQK-OH [Leptin (22-56)]”, for which the “% inhibition” value is recorded as 0.0%.

(Values after patent US20100210536A1, “USE OF LEPTIN (22-56 ) AS A THERAPEUTIC AGENT” (priority 2007, published 2010).)
